One data set concerns rabbit aortic rings. Kind of data set: Ex vivo endothelium-dependent relaxation of NE pre-constricted rabbit aortic rings. The following applies: for relaxation in pre-contracted aortic rings, dose dependence: FIGS. 1A-1C, 10^-9 to 10^-4 M cumulative; for vasorelaxation, percent relaxation of NE constricted rings: concentration 10^−4M, +/−SE. As to the method: Effect of A-type procyanidins on endothelium-dependent relaxation was tested in an ex vivo experiment performed as previously described by Karim et al., J. Nutrl Suppl., 130 (8S): […]-[…] (2000), the relevant portions of which are hereby incorporated herein by reference. The advantage of using this method is that it assesses functional cardiovascular end points. […] In summary, rabbit aortic rings were obtained from male New Zealand White rabbits. Following isolation, the rings were mounted in oxygenated Kreb's buffer, and pre-constricted with NE (10^-6 M). When the tension had reached a steady state, cumulative concentrations of the test compounds were applied (10^-9 to 10^-4 M). A positive control acetylcholine (10^-6M) and a negative control L-NAME were included in the experiment. Use of L-NAME, which is a NO synthase (NOS) inhibitor, allows for differentiating between endothelium dependent and endothelium independent relaxation events. Denuding of aortic rings represent a similar control. 400 U/mL of catalase was added into the aortic bath prior to the addition of each of the test compounds to ensure that the observed effects are not caused by hydrogen peroxide (H202) generation in the culture medium. The relaxation response was measured as a function of the decrease in the tension (g) exerted by the aortic rings over time. Data obtained were expressed as a percent relaxation of the norepinephrine (NE) constricted rings. The same statistical approach as described above was used. Dose response curves were obtained by plotting the average percent relaxation (+/-SE) against the concentrations used.

In the next data set the test system is HUVECs. Kind of data set: MTT reduction, toxic effects on HUVECs. It is filed as cell-based, human. The following applies: acute effect test. The protocol: (§1) Test compounds were evaluated with respect to their potential to acutely (2 hours) and chronically (5 doses given in a 24 h period) modulate NO production. Positive controls (acetylcholine and/or histamine) and negative control L-NNMA (NO synthase inhibitor) were included in all experiments. Cell counts and total protein were used to assess intra-assay variation. Potential toxic effects of tested compounds were also monitored (MTT reduction was measured).
(§2) For the acute effect test, HUVECs were incubated with a single dose of A2 dimer and A-type trimer for 2 and 24 hours at concentrations of 100 nM, 1 μM, and 10 μM at 37 C and 5% CO2. No effect was observed on NO production after 2 hours.
In general terms: Formazan colour is commonly taken as a measure of viable cells.

For data set [1], the system named is human umbilical vein endothelial cell (HUVEC). Kind of data set: NO production (NOx) in serum-free HUVEC culture. The data set is classed as cell-based. The protocol:
The compounds obtained as described in Example 1, were investigated for their effect on nitric oxide (NO) production and vasorelaxation using serum-free human umbilical vein endothelial cell (HUVEC) culture system in vitro and rabbit aortic ring model ex vivo, respectively. NO production by endothelial cells and relaxation of pre-constricted aortic rings are two main markers for evaluating cardiovascular effects of test compounds.
HUVECs obtained from a single donor were cultured in serum free, low protein (0.5 g/l), antibiotic-free cell culture medium supplemented with essential growth factors, nutrients and minerals. […] The cell culture medium was substituted with apo-transferrin, superoxide dismutase, and catalase to exclude secondary effects of test compounds involving their auto-oxidation mediated hydrogen peroxide formation.
as §1
NO production was evaluated by measuring the total amount of all major nitric oxide end products (NOx, including nitrate, nitrite, nitrosothiols) present in the cell culture medium. […] The amount of NO released from the culture medium was subsequently evaluated by measuring the chemiluminescence emitted during the stoichiometrical reaction between ozone and NO using NO Analyzer (Sievers Instruments, Inc. Boulder, Colo.).
The data presented herein were obtained from three experiments and were expressed as the concentration of NO present (in μmol/l) (as NOx) in the cell culture medium+/−standard deviation (SD). The data were corrected for the NOx intrinsically present in the fully supplemented cell culture medium and normalized with respect ot the volume of media from which the ample was drawn. Data were analyzed using Student's t-test with a 95% level of confidence. P values equal to or less than 0.005 were defined as statistically significant.
as §2
For the chronic effect test, HUVECs were incubated with 5 subsequent doses of test compounds, each for 24 hours. After each 24 hour treatment, culture medium was replaced. A2 dimer and A-type trimer were tested.

Setting [2] is: acute test, single dose, after 2 hours, 100 nM, 1 μM and 10 μM.
The mark [3] stands for this setting: acute test, single dose, after 24 hours, 1 μM.
The mark [4] stands for this setting: acute test, single dose, after 24 hours, 10 μM, not statistically significant.
Where [5] appears, read: typical response of positive control.

On to `Oc1cc(O)c2c(c1)O[C@@]1(c3ccc(O)c(O)c3)Oc3cc(O)c4c(c3[C@@H]2[C@H]1O)O[C@H](c1ccc(O)c(O)c1)[C@@H](O)C4c1c(O)cc(O)c2c1CC(c1ccc(O)c(O)c1)C(O)C2` (stereo partly shown) [A-type trimer], for which the “relaxation in pre-contracted aortic rings, dose dependence” value in the data set with rabbit aortic rings was “dose-dependent relaxation”. Moreover, the “vasorelaxation, percent relaxation of NE constricted rings” value in the data set on rabbit aortic rings is 56.5+/−16.56%. Moreover, in the data set on HUVECs, the “toxic effects, MTT assay” value is reported as “did not have toxic effects”. Besides, the “effect on NO production” value is on record as “No effect” in data set [1] (setting [2]); “no effect” in data set [1] (setting [3]); “increased NO production above the control level” in data set [1] (setting [4]); “statistically significant increase in NO production” in data set [1] (chronic test, 5 subsequent doses, each for 24 hours, p=0.041).

Consider `CC(=O)OCC[N+](C)(C)C` [Acetylcholine, acetylcholine, reference compound], for which, in the data set on rabbit aortic rings (setting [5]), the “concentration producing a relaxation response” value is on record as 10^−7 M and the “concentration reaching maximal relaxation” value is reported as 10^−6 M.

In the case of `Oc1cc(O)c2c(c1)O[C@@]1(c3ccc(O)c(O)c3)Oc3cc(O)c4c(c3[C@@H]2[C@H]1O)O[C@H](c1ccc(O)c(O)c1)[C@H](O)C4` [A2 dimer, epicatechin-(4β→8; 2β→O→7)-epicatechin], the “relaxation in pre-contracted aortic rings, dose dependence” value with rabbit aortic rings is “dose-dependent relaxation”. For the same compound, the “vasorelaxation, percent relaxation of NE constricted rings” value with rabbit aortic rings is 85.00+/−2.91%. For the same compound, in the data set on rabbit aortic rings (significant at p=0.005 for A1 dimer), the “relaxant potency compared with positive control acetylcholine” value is “more potent relaxants that the positive control”. In addition, the “toxic effects, MTT assay” value in the data set with HUVECs was “did not have toxic effects”. The “effect on NO production” value in data set [1] (setting [2]) is reported as “No effect”; in data set [1] (setting [3]) it was “no effect”; in data set [1] (setting [4]), “increased NO production above the control level”.

For the origin of these results see US20190269715A1, “COMPOSITIONS AND METHOD OF USE OF A-TYPE PROCYANIDINS” (MARS, INCORPORATED, priority 2004, published 2019).
